Tests used:
C57BL/6 mice [1] = assay: In vivo Luc mRNA delivery after IV injection, ex vivo organ luminescence; set-up: species or system mouse; conditions: 6 h; for organ of luciferase expression (tissue specific mRNA delivery): IV, 0.1 mg/kg Luc mRNA
Experimental: Next, to test the ability of these mDLNPs to deliver mRNA in vivo, mice were injected with a dose of 0.1 mg/kg of Luc mRNA in each of the formulations. […] Assuming that luciferase expression was detected only in liver, spleen and lung after IV injection, the percentage of luciferase expressed in each organ can be calculated (FIG. 1C). […] However, the greater the DOTAP percentage, the more luminescence is seen in lung tissues, with close to 100% of luminescence seen in the lung when DOTAP percentage is greater than 80% (FIG. 1C).
C57BL/6 mice with weight of 18-20 g, were IV injected by various Luc mRNA formulations at a dose of 0.1 or 0.05 mg/kg. n=2-4 per group. After 6 h, mice were intraperitoneal (IP) injected with D-Luciferin (150 mg/kg) and imaged by an IVIS Lumina system (Perkin Elmer). For biodistribution, C57BL/6 mice were IV injected with Cy5-Luc mRNA formulations at a dose of 0.5 mg/kg. Ex vivo imaging (Cy5 channel) was performed 6 h post injection.

C57BL/6 mice [2] = assay: Biodistribution of Cy5-Luc mRNA formulations; format: in vivo, mouse; conditions: IV, 0.5 mg/kg, 6 h
Experimental: To test the organ biodistributions of specific DOTAP formulations in greater depth, PBS or liver targeting NPs (mDLNP), spleen targeting NPs (DOTAP10) and lung targeting NPs (DOTAP50) were injected into C57BL/6 mice (n=2) at a dose of 0.5 mg/kg Cy5-Luc mRNA (dye labeled mRNA to track RNA LNPs). 6 h post injection, major organs were collected and imaged (FIG. 3A). The organ distribution of formulations was changed by the amount of DOTAP, and accumulation in liver gradually moved to lung with increasing DOTAP percentages, but regardless of DOTAP percentage, there are still NPs present in the liver (FIG. 7, FIG. 8). […] Further, considering the similar size distribution and EE between these formulations, zeta-potential and pKa may play roles in tissue targeting mRNA expression.
Mechanistic experiments were conducted to explore how and why inclusion of extra lipids in defined categories controls mRNA delivery to different organs. It is logical that LNPs that deliver to cells within the lungs should biodistribute (accumulate) in the lungs. Cy5-labeled mRNA was delivered to track the in vivo distribution of 5A2-SC8 LNPs containing SORT lipids with lung (DOTAP quaternary amino lipid), spleen (18PA anionic lipid and DSPC zwitterionic lipid) and liver (DODAP ionizable tertiary amino lipid) tropism (FIGS. 27A & 28). […]

HeLa-Luc cells = assay: Cellular uptake and uptake mechanism in HeLa-Luc cells; format: cell-based; conditions: pre-incubation 1 h, then 24 nM sgLuc, 30 min
Text: First, DOTNPs containing Cas9/sgRNA RNPs that were tagged by a green fluorescent EGFP were tracked by confocal microscopy (FIG. 12A). […] Green: EGFP fused Cas9 protein; Blue: nuclei stained with Hoechst 33342. Red arrows indicated the process of DOTNP10 entering into nucleus. (FIG. 12B)
To evaluate this strategy, 5A2-SC8 was selected as the ionizable cationic lipid because 5A2-SC8 LNPs safely deliver short siRNAs/miRNAs and long mRNAs to mice with compromised liver function, including MYC-driven liver cancer (Zhou et al., 2016; Zhang et al., 2018a; Zhang et al., 2018b) or genetic knockout of fumarylacetoacetate hydrolase (FAH) (Cheng et al., 2018). Introduction of a permanently cationic lipid (e.g. DOTAP) into traditional 4-component 5A2-SC8 LNP formulations indeed allowed controlled self-assembly to occur by mixing an ethanol solution of lipids with a PBS solution of RNPs (1/3, v/v). […] Initially using sgRNA targeting reporter Luciferase (sgLuc), the size of LNPs with 10 mole % DOTAP incorporation (5A2-DOT-10: 5A2-SC8/DOPE/Cho1/DMG-PEG/DOTAP=15/15/30/3/7 (mol/mol)) was observed, prepared using PBS buffer were slightly larger than nanoparticles without RNP loading. […]
To examine the uptake mechanism, assays of specific inhibition on endocytosis pathways were evaluated using Hela-Luc cells. […] The cells were then collected and analyzed by flow cytometry. […]

Td-Tomato mice = assay: sgRNA screening in Td-Tomato mice; format: in vivo, mouse; conditions: mDLNP, Cas9/sgRNA 4/1 wt/wt, total 3 mg/kg IV, day 7
Text: These sgRNAs are sgTom1, sgTom2 and sgLoxP. […] Considering the weak PAM of sgLoxP (NAG), sgTom1 was finally chosen for further experiments.

| Compound | organ of luciferase expression (tissue specific mRNA delivery) (C57BL/6 mice [1]) | other results |
| --- | --- | --- |
| CCCCCCCCCCCCCC(=O)OC[C@H](COP(=O)(O)O)OC(=O)CCCCCCCCCCCCC [14PA, 1,2-dimyristoyl-sn-glycero-3-phosphate] | exclusively spleen |  |
| CCCCCCCC/C=C\CCCCCCCC(=O)OCC(O)COP(=O)(O)OCC(COC(=O)CCCCCCC/C=C\CCCCCCCC)OC(=O)CCCCCCC/C=C\CCCCCCCC (stereo not shown) [18BMP, sn-(3-oleoyl-2-hydroxy)-glycerol-1-phospho-sn-3′-(1′,2′-dioleoyl)-glycerol] | exclusively spleen |  |
| CCCCCCCC/C=C\CCCCCCCC(=O)OC[C@H](COP(=O)(O)O)OC(=O)CCCCCCC/C=C\CCCCCCCC [18PA, 1,2-dioleoyl-sn-glycero-3-phosphate] | exclusively spleen | organ distribution of Cy5-labeled mRNA (C57BL/6 mice [2]): increased uptake into the spleen |
| CCCCCCCCCCC(O)CN(CCN1CCN(CCN(CC(O)CCCCCCCCCC)CC(O)CCCCCCCCCC)CC1)CCN(CC(O)CCCCCCCCCC)CC(O)CCCCCCCCCC (stereo not shown) [C12-200] | enhanced liver delivery without any luciferase expression in the lungs | delivery efficacy compared with original mDLNP formulation (C57BL/6 mice [1]; 0.1 mg/kg, n=2): much better delivery efficacy than original mDLNP formulation |
| CCCCCCCCCCCCCCCCCC[N+](C)(C)CCCCCCCCCCCCCCCCCC [DDAB, dimethyldioctadecylammonium] | liver to spleen to lung based on SORT lipid percentage | organ of luciferase signal at 40% SORT lipid (C57BL/6 mice [1]; 0.1 mg/kg): high luciferase signal was observed exclusively in the lungs |
| CCCCCCCC/C=C\CCCCCCCC(=O)OCC(C[N+](C)(C)CCOP(=O)([O-])OCC)OC(=O)CCCCCCC/C=C\CCCCCCCC (stereo not shown) [DOCPe, 2-((2,3-bis(oleoyloxy)propyl)dimethylammonio)ethyl ethyl phosphate] | move from liver to spleen |  |
| CCCCCCCC/C=C\CCCCCCCC(=O)OCC(CN(C)C)OC(=O)CCCCCCC/C=C\CCCCCCCC (stereo not shown) [DODAP, 1,2-dioleoyl-3-dimethylammonium-propane] | enhanced liver delivery without any luciferase expression in the lungs | mRNA delivery when added to C2 LNPs (no ionizable cationic lipid) (C57BL/6 mice [1]; 0.1 mg/kg, n=2): failed to enable significant mRNA delivery |
| CCCCCCCC/C=C\CCCCCCCC(=O)OCC(C[N+](C)(C)C)OC(=O)CCCCCCC/C=C\CCCCCCCC (stereo not shown) [DOTAP, 1,2-dioleoyl-3-trimethylammonium-propane] | liver to spleen to lung based on SORT lipid percentage | mRNA delivery when added to C2 LNPs (no ionizable cationic lipid) (C57BL/6 mice [1]; 0.1 mg/kg, n=2): failed to enable significant mRNA delivery; organ distribution of Cy5-labeled mRNA (C57BL/6 mice [2]): progressive increase in lung accumulation |
| CCCCCCCCCCCCCCCCCC(=O)OC[C@H](COP(=O)([O-])OCC[N+](C)(C)C)OC(=O)CCCCCCCCCCCCCCCCC [DSPC, 1,2-distearoyl-sn-glycero-3-phosphocholine] | move from liver to spleen |  |
| CCCCCCCCCCCCCC(=O)OCC(COP(=O)(OCC)OCC[N+](C)(C)C)OC(=O)CCCCCCCCCCCCC.Cl (stereo not shown) [EPC, 1,2-dimyristoyl-sn-glycero-3-ethylphosphocholine] | liver to spleen to lung based on SORT lipid percentage | organ of luciferase signal at 40% SORT lipid (C57BL/6 mice [1]; 0.1 mg/kg): high luciferase signal was observed exclusively in the lungs |
| Methyl-o-cyclodextrin [MβCD] |  | effect of endocytosis inhibitor on uptake of 5A2-DOT-10 LNPs (HeLa-Luc cells): significantly inhibited |
| sgTom1: sgRNA, AAGTAAAACCTCTACAAATG (SEQ ID NO: 1) (chemically modified sgRNA from Synthego, pattern not given here) |  | induction of TdTomato in liver (Td-Tomato mice): more successful at inducing TdTomato than sgTom2 |

From patent publication US12133924B2, “Compositions and methods for organ specific delivery of nucleic acids” (The Board of Regents of The University of Texas System, priority 2018, dated 2024)
